{
  "source": "paper PMC4932848",
  "about": "(Biochemistry, 2012)",
  "target": "T1, hUXS (human UDP-α-D-xylose synthase) (Homo sapiens, UniProt Q8NBZ7)",
  "T1 sequence (Q8NBZ7 85-420)": "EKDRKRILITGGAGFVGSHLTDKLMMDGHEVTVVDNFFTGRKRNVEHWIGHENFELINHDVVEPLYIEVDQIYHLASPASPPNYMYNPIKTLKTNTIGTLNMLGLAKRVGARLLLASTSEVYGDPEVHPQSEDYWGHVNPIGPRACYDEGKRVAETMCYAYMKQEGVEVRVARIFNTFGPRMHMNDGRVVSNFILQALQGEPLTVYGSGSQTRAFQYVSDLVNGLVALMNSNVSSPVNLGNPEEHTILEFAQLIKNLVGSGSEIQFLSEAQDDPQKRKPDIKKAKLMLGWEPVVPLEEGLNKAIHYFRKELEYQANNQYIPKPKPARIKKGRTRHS",
  "assay": "X-ray crystal structure, […] Å",
  "assay_type": "binding",
  "conditions": "copurified NAD+ bound, open conformation, no nucleotide sugar",
  "data": [
    {"smiles": "NC(=O)c1ccc[n+]([C@@H]2O[C@H](COP(=O)(O)OP(=O)(O)OC[C@H]3O[C@@H](n4cnc5c(N)ncnc54)[C@H](O)[C@@H]3O)[C@@H](O)[C@H]2O)c1", "note": "[NAD^+]", "values": [
      {"measurement": "X-ray crystal structure, 2.5 Å", "result": "Recombinant hUXS crystallizes with the copurified NAD^+ cofactor bound"}
    ]}
  ]
}
